Test results from EP4606801A1, “FUSED HETEROCYCLIC COMPOUND AND USE THEREOF” (Chengdu Zenitar Biomedical Technology Co., Ltd., priority 2022, dated 2024).

Key:
breast cancer MDA-MB-436 [1] = test: In-vivo pharmacodynamic study on subcutaneous xenograft tumor model of breast cancer MDA-MB-436; set-up: species or system NOD/SCID mice; conditions: for RTV / Tumor volume T/C% / Tumor weight (g) X±SD / Body weight (g) X±SD End / Tumor volume (mm^3) X±SD End: 24 days
Description: Strain: NOD/SCID; Grade: SPF; Source: Beijing Vitron River Bio-technology Co., Ltd.
The cells were washed 3 times with pre-cooled PBS, centrifuged at 300 g for 10 min, collected, re-suspended in PBS, and counted with a blood cell counting chamber, and the cell concentration was adjusted. After cell collection, the cell suspension was pre-cooled on ice. 100 µL of the cell suspension was administered via subcutaneous injection into the dorsal flank of the mice, and the grouped treatment was started when the tumor volume reached 200-300 mm^3.
General observation: Observation of animals: all live experimental animals to be observed; Observation time: twice a day; Observation items: including but not limited to general performance, behavioral status, eyes, mouth, nose and mouth, ears, hair, stool, urine, genitalia and other toxic symptoms; If abnormalities are observed, provide a detailed description.
Animal assay: all viable experimental animals scheduled for assay; Assay time: All animals were weighed before the modeling for test grouping. After modeling, the mice were weighed once every 2 days, and the weight change of the mice was recorded in real time. Effective criteria: tumor volume (TV), relative tumor volume (RTV) and relative tumor growth rate of subcutaneously implanted tumor model. […] The calculation formula of tumor volume (TV) was: TV (mm^3) = a×b2×0.5, where a and b were the long diameter and short diameter, respectively.
The evaluation index for anti-tumor activity was the relative tumor growth rate T/C (%), and the calculation formula was as follows: T/C(%) = TRTV/CRTV × 100%; [formula]
Where, TRTV is relative tumor volume of the treatment group; CRTV is relative tumor volume of the negative control group. Therapeutic evaluation criteria: T/C (%)> 60 is considered ineffective; T/C (%) ≤ 60, and P < 0.05 (through statistical analysis) is considered effective. Measurement of tumor weight and tumor inhibition rate (%): At the end of the treatment period, the animals were euthanize, tumor masses dissected and isolated, tumors weighed, and photographs took. The tumor inhibition rate (%) was calculated by the formula below: [formula]
All raw data within the facility were collected manually according to the experimental scheme and the relevant guidelines of the research institution, or gathered by using a data acquisition system. Manually collected data can be transcribed into software such as Excel for analysis and reporting. The data from each group were quantitative, and the experimental data for each group of animals in the tables were expressed as mean ± standard deviation (Mean ± SD). In the figures, the experimental data ware described as mean ± standard error of the mean (Mean ± SEM). Statistical analysis, including t-tests and survival analysis, was performed by using the software such as EXCEL and GraphPad Prism.
After 24 days of administration, the tumor-bearing mice were anesthetized and euthanized. The tumor tissues were dissected, weighed, and photographed, and the tumor inhibition rate was calculated.

breast cancer MDA-MB-436 [2] = tested on: breast cancer MDA-MB-436; set-up: species or system NOD/SCID mice; conditions: mouse, in vivo
gastric cancer PDX model = test: In-vivo pharmacodynamic study on PDX gastric cancer mice model; conditions: Fig. 3
Description: Experimental procedure: Tumor tissues from gastric cancer patients were used to establish a stable passaged tumor-bearing mice model. In this study, tumor fragments from mice that had been stably passaged three times were used for subcutaneous inoculation. Eight groups were divided for the experiment, with 6 mice in each group. The negative control group (Control) received normal saline at 0.2 mL per mice per administration, given orally once per day; the carboplatin control group (Carboplatin, Car) received 20 mg/kg at 0.2 mL per mice per administration, administered via intraperitoneal injection once every 7 days.

[2H]C([2H])([2H])C([2H])([2H])c1cc2ncc(CN3CC=C(c4ccc(C(=O)NC)nc4)CC3)cc2[nH]c1=O [Compound 6, 1'-((7-(ethyl-d5)-6-oxo-5,6-dihydro-1,5-naphthyridin-3-yl)methyl)-N-methyl-1',2',3',6'-tetrahy dro-[3,4'-bipyridine]-6-carboxamide]
RTV (breast cancer MDA-MB-436 [1]; 0.03 mg/kg orally once daily): 2.7
Tumor volume T/C% (breast cancer MDA-MB-436 [1]; 0.03 mg/kg orally once daily): 40.8%
Tumor weight (g) X±SD (breast cancer MDA-MB-436 [1]; 0.03 mg/kg orally once daily): 1.09 ± 0.29 g
Body weight (g) X±SD End (breast cancer MDA-MB-436 [1]; 0.03 mg/kg orally once daily): 21.6 ± 0.7 g
Tumor volume (mm^3) X±SD End (breast cancer MDA-MB-436 [1]; 0.03 mg/kg orally once daily): 739.4±308.7 mm^3
Body weight (g) X±SD Start (breast cancer MDA-MB-436 [1]; 0.03 mg/kg orally once daily): 22.6 ± 0.7 g
Tumor volume (mm^3) X±SD Start (breast cancer MDA-MB-436 [1]; 0.03 mg/kg orally once daily): 275.0±68.1 mm^3
RTV (breast cancer MDA-MB-436 [1]; 0.1 mg/kg orally once daily): 0.8
Tumor volume T/C% (breast cancer MDA-MB-436 [1]; 0.1 mg/kg orally once daily): 12.6%
Tumor weight (g) X±SD (breast cancer MDA-MB-436 [1]; 0.1 mg/kg orally once daily): 0.29 ± 0.09 g
Body weight (g) X±SD End (breast cancer MDA-MB-436 [1]; 0.1 mg/kg orally once daily): 21.6 ± 0.7 g
Tumor volume (mm^3) X±SD End (breast cancer MDA-MB-436 [1]; 0.1 mg/kg orally once daily): 228.0±75.9 mm^3
Body weight (g) X±SD Start (breast cancer MDA-MB-436 [1]; 0.1 mg/kg orally once daily): 22.3 ± 1.0 g
Tumor volume (mm^3) X±SD Start (breast cancer MDA-MB-436 [1]; 0.1 mg/kg orally once daily): 274.7±73.8 mm^3
RTV (breast cancer MDA-MB-436 [1]; 0.3 mg/kg orally once daily): 0.3
Tumor volume T/C% (breast cancer MDA-MB-436 [1]; 0.3 mg/kg orally once daily): 3.8%
Tumor weight (g) X±SD (breast cancer MDA-MB-436 [1]; 0.3 mg/kg orally once daily): 0.09 ± 0.08 g
complete tumor regression (mice out of 6) (breast cancer MDA-MB-436 [1]; 0.3 mg/kg orally once daily, at the end of treatment): 2/6
Body weight (g) X±SD End (breast cancer MDA-MB-436 [1]; 0.3 mg/kg orally once daily): 22.0 ± 0.9 g
Tumor volume (mm^3) X±SD End (breast cancer MDA-MB-436 [1]; 0.3 mg/kg orally once daily): 71.0±62.5 mm^3
Body weight (g) X±SD Start (breast cancer MDA-MB-436 [1]; 0.3 mg/kg orally once daily): 22.3 ± 0.8 g
Tumor volume (mm^3) X±SD Start (breast cancer MDA-MB-436 [1]; 0.3 mg/kg orally once daily): 281.9±67.4 mm^3
anti-tumor efficacy in the model of large-volume tumors (breast cancer MDA-MB-436 [2]): complete regression of tumors
rate of tumor regression compared to the compounds 1 and 21 (breast cancer MDA-MB-436 [2]): faster rate of tumor regression
tumor growth in gastric cancer PDX model (gastric cancer PDX model; 3 mg/kg p.o once per day combined with carboplatin 20 mg/kg i.p once per 7 days): significantly inhibit tumor growth
inhibitory effect on the gastric cancer PDX model (gastric cancer PDX model; 0.3, 1, 3 mg/kg p.o once per day combined with carboplatin 20 mg/kg i.p once per 7 days): dose-dependent inhibitory effect
